By inhibition is commonly meant the drop in the measured response relative to a control, in per cent.

For this assay, the system named is normal human platelet rich plasma. Kind of assay: Agonist-induced platelet aggregation in platelet rich plasma, PAP 8E aggregometer. The class given is cell-based. Particulars: non-aspirinized plasma; for effect on ADP-induced aggregation: ADP 10 μM; for effect on Bio/Data collagen-induced aggregation: Bio/Data collagen 190 μg/mL; for effect on Chrono Log collagen-induced aggregation: Chrono Log collagen 10 μg/mL; for effect on arachidonic acid-induced aggregation: arachidonic acid 500 μg/mL; for effect on aggregation induced by lower concentrations of synthetic collagen: synthetic collagen 32 ng/mL and lower (32, 16, 8 ng/mL); for effect on aggregation induced by 64 ng/mL synthetic collagen: synthetic collagen 64 ng/mL. As to the method:
ADP was obtained from Bio/Data Corporation, Horsham, Pa. Each vial was reconstituted with 1 mL of deionized water to make a 100 μM working solution. The final concentration of ADP in the aggregation cuvette was 10 μM.
Arachidonic acid was obtained from Bio/Data Corporation, Horsham, Pa. Each vial was reconstituted with 0.5 mL deionized water to make a 5 mg/mL working solution. The final concentration of arachidonic acid in the aggregation cuvette was 500 μg/mL.
Collagen was obtained from Bio/Data Corporation, Horsham, Pa. Each vial was reconstituted with 0.5 mL deionized water to make a 1.9 mg/mL working solution. The final concentration of Bio/Data collagen in the aggregation cuvette was 190 μg/mL.
Collagen was obtained from Chrono Log Corporation, Havertown, Pa. as a 1 mg/mL solution. A working solution of 100 μg/mL was made by dilution with physiologic saline. The final concentration of Chrono Log collagen in the aggregation cuvette was 10 μg/mL.
Synthetic collagen was provided by JNC Corporation, Yokohama, Japan at working concentrations of 80, 160, 320 and 640 ng/mL. The final concentrations of synthetic collagen in the aggregation cuvette were 64, 32, 16 and 8 ng/mL.
Approval for the collection of whole blood from healthy human volunteers was granted from the Institutional Review Board of the Health Sciences Division of Loyola University Chicago. Whole blood was drawn using a double syringe technique from the antecubital vein and anticoagulated by the addition of 1 part 3.2% sodium citrate to (9 parts blood to 1 part citrate). Citrated blood was centrifuged at 80×g at room temperature for 15 minutes to make platelet rich plasma (PRP). Supernatant PRP was collected and kept at room temperature in capped tubes. The remaining citrated blood was recentrifuged at 1,100×g for 15 minutes to make platelet poor plasma (PPP). The platelet count of the PRP was determined using an ICHOR II Analyzer, Helena Laboratories, Beaumont, Tex. Platelet count in the PRP was adjusted to 250,000-300,000/μl by the addition of homologous PPP.
Platelet aggregation was measured using a PAP 8E platelet aggregometer (Bio/Data). Each well was blanked using PPP. 25 μl of saline or antiplatelet drug and 200 μl of PRP were added to cuvettes containing magnetic stir bars and incubated for three minutes to equilibrate the sample to 37° C. 25 μl of agonist was added to each cuvette and the aggregation profile was monitored until a plateau was achieved. Results were tabulated in terms of maximal aggregation level. Under some reaction conditions, reversible aggregation was observed. This was most commonly observed with ADP and arachidonic acid-induced aggregation in the presence of ticagrelor or cilostazol. Final aggregation levels were also tabulated.

Take `O=C1CCc2cc(OCCCCc3nnnn3C3CCCCC3)ccc2N1` [cilostazol, Cilostazol]: the “effect on ADP-induced aggregation” value is “minimally affected”, the “effect on Bio/Data collagen-induced aggregation” value is “did not inhibit aggregation”, the “effect on Chrono Log collagen-induced aggregation” value was “did not inhibit aggregation” and the “effect on arachidonic acid-induced aggregation” value is “strongly inhibited”. Besides, the “effect on aggregation induced by lower concentrations of synthetic collagen” value was “the anti-platelet effect of higher concentrations of cilostazol could be observed” and the “effect on aggregation induced by 64 ng/mL synthetic collagen” value (from here on “effect … by 64 ng/mL synthetic collagen”) is listed as “did not inhibit aggregation”. Also, the inhibition at 25 µM (Homo sapiens, Platelet, drug at 25 μM, read-out: inhibition of ADP-induced aggregation) is ~30%. Moreover, the “effect on ADP-induced aggregation” value (listed as Cilostazol) is listed as “weaker, concentration-dependent inhibition”. Also, for the setting “drug at concentrations ≥12.5 μM, 95% in the absence of drug”, the “arachidonic acid-induced aggregation level” value was ~20%.
As to `CCCSc1nc(N[C@@H]2C[C@H]2c2ccc(F)c(F)c2)c2nnn([C@@H]3C[C@H](OCCO)[C@@H](O)[C@H]3O)c2n1` [ticagrelor, (1S,2S,3R,5S)-3-[7-[[(1R,2S)-2-(3,4-difluorophenyl)cyclopropyl]amino]-5-propylsulfanyltriazolo[4,5-d]pyrimidin-3-yl]-5-(2-hydroxyethoxy)cyclopentane-1,2-diol], the “effect on ADP-induced aggregation” value was “strongly inhibited”; the “effect on Bio/Data collagen-induced aggregation” value is listed as “Neither Bio/Data collagen, Chrono Log collagen nor 64 ng/mL synthetic collagen was markedly impacted”; the “effect on Chrono Log collagen-induced aggregation” value is reported as “Neither Bio/Data collagen, Chrono Log collagen nor 64 ng/mL synthetic collagen was markedly impacted”; the “effect on arachidonic acid-induced aggregation” value is recorded as “inhibited to a similar extent”. For the same molecule, the “effect on aggregation induced by lower concentrations of synthetic collagen” value was “antiplatelet effects of Ticagrelor® could be identified” and the “effect … by 64 ng/mL synthetic collagen” value was “Neither Bio/Data collagen, Chrono Log collagen nor 64 ng/mL synthetic collagen was markedly impacted”.

B1: abciximab: Fab Fragment Chimeric monoclonal antibody 7E3 (GP IIbIIIa receptor blocker) (antibody, chains of the INN, looked up, V domains shown)
VH: EVQLQQSGTVLARPGASVKMSCEASGYTFTNYWMHWVKQRPGQGLEWIGAIYPGNSDTSYIQKFKGKAKLTAVTSTTSVYMELSSLTNEDSAVYYCTLYDGYYVFAYWGQGTLVTVSA
VL: EIVLTQSPVTLSVTPGDSVSLSCRASRDISNNLHWFQQTSHESPRLLIKYASQSMSGIPSRFSGSGSGTDFTLSINSVETEDFGMYFCQQTNSWPYTFGGGTKLEIK
modifications: Fab
For the molecule B1, the “effect on ADP-induced aggregation” value is “inhibited aggregation”, the “effect on Bio/Data collagen-induced aggregation” value is on record as “only observed at the 5 μg/mL concentration”, the “effect on Chrono Log collagen-induced aggregation” value was “only observed at the 5 μg/mL concentration” and the “effect on arachidonic acid-induced aggregation” value was “most sensitive for detecting the presence of abciximab”. Besides, the “effect on aggregation induced by lower concentrations of synthetic collagen” value is “most sensitive for detecting the presence of abciximab” and the “effect … by 64 ng/mL synthetic collagen” value was “inhibited by abciximab to a comparable degree”. In addition, the “inhibition of agonist-induced aggregation (all agonists)” value (concentration range 1.25-5 μg/mL, FIG. 11) is “concentration-dependent inhibition”.

The values are drawn from patent US20180306819A1, “ANTI-PLATELET RESPONSE AND REACTIVITY TEST USING SYNTHETIC COLLAGEN” (JNC CORPORATION, priority 2012, published 2018).
